Results as given in ChEMBL document CHEMBL3797190, “Development of 3,5-Dinitrobenzylsulfanyl-1,3,4-oxadiazoles and Thiadiazoles as Selective Antitubercular Agents Active Against Replicating and Nonreplicating Mycobacterium tuberculosis” (J Med Chem, 2016).
In brackets after ≈: the same amount, converted by molar mass. Activity calls are given as the source filed them. The rule behind the calls is not given here.

Legend:
[1] = system: Mycobacterium tuberculosis; experiment: Antimycobacterial activity against Mycobacterium tuberculosis H37Rv after 7 days by HTS assay; format: functional; settings: 168 h
Mycobacterium kansasii [2] = experiment: Antimycobacterial activity against Mycobacterium kansasii CNCTC My 235/80 after 21 days by microdilution method; format: functional; settings: CNCTC My 235/80, 504 h
Hepatocyte = experiment: Cytotoxicity against primary human hepatocytes assessed as cell viability after 48 hrs by MTS assay; format: cell-based
[3] = Cytotoxicity against MDCK2-MDR1 cells assessed as cell viability at 20 uM after 48 hrs by MTS assay; format: ADME, cell-based, Canis lupus familiaris, MDCK-II; settings: dog, read-out: Activity
Mycobacterium avium [4] = experiment: Antimycobacterial activity against Mycobacterium avium CNCTC My 330/88 after 14 days by microdilution method; format: functional; settings: CNCTC My 330/88, 336 h
[5] = Cytotoxicity against primary human hepatocytes assessed as cell viability at 20 uM after 48 hrs by MTS assay; format: cell-based, Hepatocyte; settings: read-out: Activity
[6] = system: Mycobacterium tuberculosis; experiment: Antimycobacterial activity against Mycobacterium tuberculosis CNCTC My 331/88 after 21 days by microdilution method; format: functional; settings: CNCTC My 331/88, 504 h
Salmonella typhimurium [7] = experiment: Mutagenic activity in Salmonella typhimurium TA98 assessed as reverse mutation at 30 uM by Ames test; format: toxicity, organism-based; settings: salmonella enterica subsp. enterica serovar typhimurium
Mycobacterium kansasii [8] = experiment: Antimycobacterial activity against Mycobacterium kansasii CNCTC My 235/80 after 7 days by microdilution method; format: functional; settings: CNCTC My 235/80, 168 h
[9] = Cytotoxicity against MDCK2-MDR1 cells assessed as cell viability after 48 hrs by MTS assay; format: ADME, cell-based; settings: Canis lupus familiaris, MDCK-II
[10] = system: Mycobacterium tuberculosis; experiment: Antimycobacterial activity against Mycobacterium tuberculosis CNCTC My 331/88 after 14 days by microdilution method; format: functional; settings: CNCTC My 331/88, 336 h
[11] = Cytotoxicity against human HuH7 cells assessed as cell viability after 24 hrs by MTS assay; format: cell-based; settings: Huh-7, 24 h
HeLa [12] = experiment: Cytotoxicity against human HeLa cells assessed as cell viability after 24 hrs by MTS assay; format: cell-based
[13] = Cytotoxicity against human HeLa cells assessed as cell viability at 20 uM after 48 hrs by MTS assay; format: cell-based; settings: read-out: Activity
Mycobacterium kansasii [14] = experiment: Antimycobacterial activity against Mycobacterium kansasii CNCTC My 235/80 after 14 days by microdilution method; format: functional; settings: CNCTC My 235/80, 336 h
[15] = Cytotoxicity against human HeLa cells assessed as cell viability at 20 uM after 24 hrs by MTS assay; format: cell-based; settings: read-out: Activity
[16] = Cytotoxicity against human HuH7 cells assessed as cell viability at 20 uM after 48 hrs by MTS assay; format: cell-based, Huh-7; settings: read-out: Activity
HeLa [17] = experiment: Cytotoxicity against human HeLa cells assessed as cell viability after 48 hrs by MTS assay; format: cell-based
Mycobacterium avium [18] = experiment: Antimycobacterial activity against Mycobacterium avium CNCTC My 330/88 after 21 days by microdilution method; format: functional; settings: CNCTC My 330/88, 504 h
[19] = Cytotoxicity against MDCK2-MDR1 cells assessed as cell viability at 20 uM after 24 hrs by MTS assay; format: ADME, cell-based, Canis lupus familiaris, MDCK-II; settings: dog, read-out: Activity
Mycobacterium kansasii [20] = experiment: Antimycobacterial activity against Mycobacterium kansasii CNCTC My 6509/96 after 21 days by microdilution method; format: functional; settings: CNCTC My 6509/96, 504 h
Mycobacterium kansasii [21] = experiment: Antimycobacterial activity against Mycobacterium kansasii CNCTC My 6509/96 after 7 days by microdilution method; format: functional; settings: CNCTC My 6509/96, 168 h
Mycobacterium kansasii [22] = experiment: Antimycobacterial activity against Mycobacterium kansasii CNCTC My 6509/96 after 14 days by microdilution method; format: functional; settings: CNCTC My 6509/96, 336 h
Salmonella typhimurium [23] = experiment: Mutagenic activity in Salmonella typhimurium TA100 assessed as reverse mutation at 30 uM by Ames test; format: toxicity, organism-based; settings: salmonella enterica subsp. enterica serovar typhimurium
[24] = Cytotoxicity against human HuH7 cells assessed as cell viability at 20 uM after 24 hrs by MTS assay; format: cell-based, Huh-7; settings: read-out: Activity
[25] = Cytotoxicity against MDCK2-MDR1 cells assessed as cell viability after 24 hrs by MTS assay; format: ADME, cell-based; settings: Canis lupus familiaris, MDCK-II
[26] = system: Mycobacterium tuberculosis; experiment: Antimycobacterial activity against Mycobacterium tuberculosis H37Ra assessed as growth inhibition at 0.2 ug/ml preincubated for 24 hrs followed by radiolabeling with [14C]-acetate for 24 hrs; format: functional; settings: read-out: GI
[27] = system: Mycobacterium tuberculosis H37Ra; experiment: Inhibition of DprE1 in Mycobacterium tuberculosis H37Ra assessed as accumulation of trehalose dimycolate at 0.2 ug/ml preincubated for 24 hrs followed by radiolabeling with [14C]-acetate for 24 hrs by TLC/autoradiographic method
Pseudomonas aeruginosa = experiment: Antibacterial activity against Pseudomonas aeruginosa ATCC 9027 after 24 to 48 hrs by broth microdilution method; format: functional
Staphylococcus aureus [28] = experiment: Antibacterial activity against Staphylococcus aureus ATCC 6538 after 24 to 48 hrs by broth microdilution method; format: functional
[29] = system: Staphylococcus epidermidis; experiment: Antibacterial activity against Staphylococcus epidermidis H 6966/08 after 24 to 48 hrs by broth microdilution method; format: functional
Aspergillus fumigatus = experiment: Antifungal activity against Aspergillus fumigatus 231 after 24 to 48 hrs by broth microdilution method; format: functional
Escherichia coli = experiment: Antibacterial activity against Escherichia coli ATCC 8739 after 24 to 48 hrs by broth microdilution method; format: functional
Pichia kudriavzevii = experiment: Antifungal activity against Candida krusei E28 after 24 to 48 hrs by broth microdilution method; format: functional
Lichtheimia corymbifera = experiment: Antifungal activity against Absidia corymbifera 272 after 24 to 48 hrs by broth microdilution method; format: functional
Trichosporon asahii = experiment: Antifungal activity against Trichosporon asahii 1188 after 24 to 48 hrs by broth microdilution method; format: functional
Nakaseomyces glabratus = experiment: Antifungal activity against Candida glabrata 20/I after 24 to 48 hrs by broth microdilution method; format: functional
Klebsiella pneumoniae [30] = experiment: Antibacterial activity against Klebsiella pneumoniae D 11750/08 after 24 to 48 hrs by broth microdilution method; format: functional
Enterococcus faecalis = experiment: Antibacterial activity against Enterococcus faecalis J 14365/08 after 24 to 48 hrs by broth microdilution method; format: functional
Candida albicans = experiment: Antifungal activity against Candida albicans ATCC 44859 after 24 to 48 hrs by broth microdilution method; format: functional
Staphylococcus aureus [31] = experiment: Antibacterial activity against methicillin-resistant Staphylococcus aureus H 5996/08 after 24 to 48 hrs by broth microdilution method; format: functional
Klebsiella pneumoniae [32] = experiment: Antibacterial activity against ESBL producing Klebsiella pneumoniae J 14368/08 after 24 to 48 hrs by broth microdilution method; format: functional
Candida tropicalis = experiment: Antifungal activity against Candida tropicalis 156 after 24 to 48 hrs by broth microdilution method; format: functional
[33] = system: Trichophyton mentagrophytes; experiment: Antifungal activity against Trichophyton mentagrophytes 445 after 72 to 120 hrs by broth microdilution method; format: functional
[34] = system: Mycobacterium tuberculosis; experiment: Inhibition of proteosynthesis in Mycobacterium tuberculosis H37Ra assessed as reduction of [14C]-methionine incorporation at 5 ug/ml preincubated for 1 hr followed by radiolabeling with [14C]-methionine for 24 hrs by scintillation spectrometry; format: functional, organism-based
[35] = system: Mycobacterium tuberculosis; experiment: Inhibition of RNA biosynthesis in Mycobacterium tuberculosis H37Ra assessed as reduction of [14C]-uracil incorporation at 5 ug/ml preincubated for 1 hr followed by radiolabeling with [14C]-uracil for 24 hrs by scintillation spectrometry; format: functional, organism-based
[36] = system: Mycobacterium tuberculosis; experiment: Antimycobacterial activity against Mycobacterium tuberculosis H37Ra assessed as growth inhibition at 5 ug/ml preincubated for 1 hr followed by radiolabeling with [14C]-uracil, [14C]-methionine for 24 hrs; format: functional, organism-based

## COc1ccc(-c2nnc(SCC(=O)NCCc3ccccc3)o2)cc1
[1]
  IC90: 0.38 µM

## COc1cccc(-c2nnc(SCc3cc([N+](=O)[O-])cc([N+](=O)[O-])c3)s2)c1
Mycobacterium kansasii [2]
  MIC99: 0.5 µM (≈ 0.202 µg/mL)
Hepatocyte
  IC50: > 20 µM
[3]
  viability at 48 h, 20 µM: 18.5%
Mycobacterium avium [4]
  MIC99: 8 µM (≈ 3.24 µg/mL)
[5]
  viability at 48 h, 20 µM: 121%
[6]
  MIC99: 0.06 µM (≈ 0.0243 µg/mL)
Salmonella typhimurium [7]
  Activity: Non-toxic
Mycobacterium kansasii [8]
  MIC99: 0.25 µM (≈ 0.101 µg/mL)
[9]
  IC50: 6.4 µM
[10]
  MIC99: ≤ 0.03 µM
[11]
  IC50: > 20 µM
HeLa [12]
  IC50: > 20 µM
[13]
  viability at 48 h, 20 µM: 17.5%
Mycobacterium kansasii [14]
  MIC99: 0.5 µM (≈ 0.202 µg/mL)
[15]
  viability at 24 h, 20 µM: 71.2%
[16]
  viability at 48 h, 20 µM: 33%
HeLa [17]
  IC50: 4 µM
Mycobacterium avium [18]
  MIC99: 16 µM (≈ 6.47 µg/mL)
[19]
  viability at 24 h, 20 µM: 100%
Mycobacterium kansasii [20]
  MIC99: 0.5 µM (≈ 0.202 µg/mL)
Mycobacterium kansasii [21]
  MIC99: 0.25 µM (≈ 0.101 µg/mL)
Mycobacterium kansasii [22]
  MIC99: 0.5 µM (≈ 0.202 µg/mL)
Salmonella typhimurium [23]
  Activity: Non-toxic
[24]
  viability at 24 h, 20 µM: 86.3%
[25]
  IC50: > 20 µM

## COC(=O)CSc1nnc(-c2ccc(C(C)(C)C)cc2)s1
[1]
  IC90: 0.62 µM

## C[C@H]1COC2(CCN(c3nc(=O)c4cc(C(F)(F)F)cc([N+](=O)[O-])c4s3)CC2)O1 [BTZ-043]
[26]
  inhibition of growth at 0.2 µg/mL: 38%
[27]
  inhibition: Active

## O=[N+]([O-])c1cc(CSc2nnc(-c3ccc(Cl)cc3Cl)o2)cc([N+](=O)[O-])c1
Mycobacterium kansasii [2]
  MIC99: 0.5 µM (≈ 0.214 µg/mL)
Hepatocyte
  IC50: > 20 µM
[3]
  viability at 48 h, 20 µM: 27.9%
Mycobacterium avium [4]
  MIC99: 16 µM (≈ 6.84 µg/mL)
[5]
  viability at 48 h, 20 µM: 81.1%
[6]
  MIC99: 0.06 µM (≈ 0.0256 µg/mL)
Mycobacterium kansasii [8]
  MIC99: 0.125 µM (≈ 0.0534 µg/mL)
Pseudomonas aeruginosa
  MIC95: > 125 µM
[10]
  MIC99: ≤ 0.03 µM
[11]
  IC50: > 20 µM
HeLa [12]
  IC50: > 20 µM
[13]
  viability at 48 h, 20 µM: 39.9%
Mycobacterium kansasii [14]
  MIC99: 0.5 µM (≈ 0.214 µg/mL)
[15]
  viability at 24 h, 20 µM: 76.4%
[16]
  viability at 48 h, 20 µM: 37.7%
Staphylococcus aureus [28]
  MIC95: > 125 µM
[29]
  MIC95: > 125 µM
Aspergillus fumigatus
  MIC50: > 125 µM
Escherichia coli
  MIC95: > 125 µM
Mycobacterium avium [18]
  MIC99: 32 µM (≈ 13.7 µg/mL)
Pichia kudriavzevii
  MIC80: > 125 µM
[19]
  viability at 24 h, 20 µM: 106%
Lichtheimia corymbifera
  MIC50: > 125 µM
Trichosporon asahii
  MIC80: > 125 µM
Mycobacterium kansasii [20]
  MIC99: 0.5 µM (≈ 0.214 µg/mL)
Nakaseomyces glabratus
  MIC80: > 125 µM
Mycobacterium kansasii [21]
  MIC99: 0.125 µM (≈ 0.0534 µg/mL)
Klebsiella pneumoniae [30]
  MIC95: > 125 µM
Enterococcus faecalis
  MIC95: > 125 µM
Candida albicans
  MIC80: > 125 µM
Mycobacterium kansasii [22]
  MIC99: 0.25 µM (≈ 0.107 µg/mL)
Staphylococcus aureus [31]
  MIC95: > 125 µM
Klebsiella pneumoniae [32]
  MIC95: > 125 µM
[24]
  viability at 24 h, 20 µM: 95.7%
[25]
  IC50: > 20 µM
Candida tropicalis
  MIC80: > 125 µM
[33]
  MIC50: > 125 µM

## NC[C@H]1O[C@H](O[C@H]2[C@H](O)[C@@H](O[C@H]3O[C@H](CO)[C@@H](O)[C@H](N)[C@H]3O)[C@H](N)C[C@@H]2N)[C@H](O)[C@@H](O)[C@@H]1O
[34]
  inhibition: Active
[35]
  inhibition: inactive
[36]
  growth inhibition (GI): Active
